# Source: patent US10709709B2, “Substituted carbonucleoside derivatives useful as anticancer agents” (Pfizer Inc., priority 2016, dated 2020)
# Structures can show the parent of a compound that is named as a salt.
# System: A549 lung adenocarcinoma cells
# Experiment: A549 proliferation assay (Cell Titer Glo)
# Assay type: cell-based
# Conditions: 7 days with compound, cell viability by Cell Titer Glo (ATP), hydrochloride
# Method: A549 lung adenocarcinoma cells (American Type Culture Collection) were maintained in DMEM growth media (Life Technologies) supplemented with 10% v/v heat inactivated fetal bovine serum (Sigma) and cultured at 37° C., 5% CO2. Exponentially growing A549 cells were plated in 96-well black tissue culture treated plates (Corning) at a density of […] in a volume of 100 μl culture media and allowed to adhere overnight at 37° C., 5% CO2. The following day, compound plates were prepared by making nine-point 3.3-fold dilutions in DMSO with a top concentration of 10 mM. Compounds were further diluted in culture media and 11 μl was added to the cells (final top assay concentration was 10 μM and DMSO was 0.2%). Cells were incubated with compound at 37° C., 5% CO2 for 7 days with media and compound replacement on day 4. Cell viability was assayed on Day 7 by adding 100 μl Cell Titer Glo (Promega) reagent to the plate to measure the amount of ATP present in the cells. Luminescence was read using the Envision 2104 Multilabel Reader (Perkin Elmer). The 50% inhibitory concentration (IC50) was determined using a 4-parameter fit model normalized to the DMSO control in dose response.
row,SMILES,IC50
1,"Cc1ncnc2c1ccn2[C@@H]1C[C@H](Oc2ccc(F)c3c2CNCC3C)[C@@H](O)[C@H]1O (single isomer, unassigned) [Example 183, hydrochloride]",136 nM

# Same assay, conditions: Homo sapiens, A549, 168 h, 7 days with compound, cell viability by Cell Titer Glo (ATP)
row,SMILES,IC50
1,"Cc1ncnc2c1ccn2[C@@H]1C[C@H](Oc2cc(OC(F)F)c(F)c3c2CNCC3)[C@@H](O)[C@H]1O [Example 200, (1S,2S,3S,5R)-3-((6-(difluoromethoxy)-5-fluoro-1,2,3,4-tetrahydroisoquinolin-8-yl)oxy)-5-(4-methyl-7H-pyrrolo[2,3-d]pyrimidin-7-yl)cyclopentane-1,2-diol]",140 nM
2,Nc1ncnc2c1c(Br)cn2[C@@H]1C[C@H](Oc2cc(Cl)cc3c2CNCC3)[C@@H](O)[C@H]1O [Example 131],482 nM
3,"Cc1cc2c(c(O[C@H]3C[C@@H](n4ccc5c(C)ncnc54)[C@H](O)[C@@H]3O)c1)CNCCO2 [Example 206, (1S,2S,3S,5R)-3-((8-methyl-2,3,4,5-tetrahydrobenzo[f][1,4]oxazepin-6-yl)oxy)-5-(4-methyl-7H-pyrrolo[2,3-d]pyrimidin-7-yl)cyclopentane-1,2-diol]",6550 nM
4,"Cc1ncnc2c1ccn2[C@@H]1C[C@H](Oc2cc(C(F)F)cc3c2CNCCO3)[C@@H](O)[C@H]1O [Example 205, (1S,2S,3S,5R)-3-((8-(difluoromethyl)-2,3,4,5-tetrahydrobenzo[f][1,4]oxazepin-6-yl)oxy)-5-(4-methyl-7H-pyrrolo[2,3-d]pyrimidin-7-yl)cyclopentane-1,2-diol]",248 nM

# Molecular target: PRMT5/MEP50 protein complex (Homo sapiens (Human), UniProt O14744)
# Experiment: PRMT5 biochemical assay (3H-SAM methylation of H4(1-21) peptide, filter plate scintillation)
# Conditions: 10 nM PRMT5/MEP50 complex, 200 nM H4(1-21) peptide, 1 uM SAM, 25 minute incubation at room temperature
# Procedure, shortened: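 Scintillation read-out: after 25 min at room temperature and a TCA stop, tritiated H4(1-21) product (peptide 200 nM) is caught on a filter plate. Reaction holds 10 nM PRMT5/MEP50 and 1 uM 3H-labelled plus cold SAM in 50 mM Tris pH 8.5 with MgCl2, EDTA and TCEP. IC50 values come from a 4-parameter dose-response fit.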
# Sequence of PRMT5/MEP50 protein complex (O14744 other isoform, or with tags, fused parts or gaps): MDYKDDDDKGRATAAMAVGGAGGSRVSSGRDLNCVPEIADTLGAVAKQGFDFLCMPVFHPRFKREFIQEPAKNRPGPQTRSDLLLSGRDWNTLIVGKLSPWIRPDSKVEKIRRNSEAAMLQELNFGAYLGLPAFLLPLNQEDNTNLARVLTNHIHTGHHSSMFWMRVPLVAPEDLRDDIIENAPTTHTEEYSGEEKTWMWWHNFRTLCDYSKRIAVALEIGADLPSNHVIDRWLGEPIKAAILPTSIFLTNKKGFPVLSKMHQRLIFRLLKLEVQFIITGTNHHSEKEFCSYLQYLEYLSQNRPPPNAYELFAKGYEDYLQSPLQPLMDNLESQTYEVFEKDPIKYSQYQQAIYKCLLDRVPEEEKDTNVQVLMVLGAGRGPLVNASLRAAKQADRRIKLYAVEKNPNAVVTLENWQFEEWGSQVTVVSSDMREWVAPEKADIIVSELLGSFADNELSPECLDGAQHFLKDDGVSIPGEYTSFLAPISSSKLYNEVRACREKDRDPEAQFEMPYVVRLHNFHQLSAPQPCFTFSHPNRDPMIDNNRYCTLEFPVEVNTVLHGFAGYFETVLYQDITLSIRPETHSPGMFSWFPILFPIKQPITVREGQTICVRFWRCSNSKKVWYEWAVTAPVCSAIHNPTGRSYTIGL
# Sequence of PRMT5/MEP50 protein complex (Q9BQA1 whole entry partner): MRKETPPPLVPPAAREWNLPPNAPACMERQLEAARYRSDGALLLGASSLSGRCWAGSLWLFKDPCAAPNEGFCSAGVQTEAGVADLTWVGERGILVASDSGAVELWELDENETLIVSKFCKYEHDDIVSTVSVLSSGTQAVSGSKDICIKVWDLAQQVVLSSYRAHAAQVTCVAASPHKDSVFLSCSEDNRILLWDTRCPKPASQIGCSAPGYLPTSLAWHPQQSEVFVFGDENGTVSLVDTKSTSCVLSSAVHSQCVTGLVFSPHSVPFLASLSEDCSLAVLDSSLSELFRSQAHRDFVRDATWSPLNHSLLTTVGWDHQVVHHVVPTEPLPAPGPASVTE
row,SMILES,IC50
1,"Cc1ncnc2c1ccn2[C@@H]1C[C@H](C(F)(CN)c2ccc(F)cc2)[C@@H](O)[C@H]1O (stereo partly drawn) [Example 50, (1S,2R,3S,5R)-3-[2-amino-1-fluoro-1-(4-fluorophenyl)ethyl]-5-(4-methyl-7H-pyrrolo[2,3-d]pyrimidin-7-yl)cyclopentane-1,2-diol]",18900 nM
2,"Cc1ncnc2c1ccn2[C@@H]1C[C@H]([C@@H](O)c2cccc(Cl)c2)[C@@H](O)[C@H]1O [Example 8, (1S,2R,3R,5R)-3-[(R)-(3-chlorophenyl) (hydroxy)methyl]-5-(4-methyl-7H-pyrrolo[2,3-d]pyrimidin-7-yl)cyclopentane-1,2-diol]",3390 nM
3,"Cc1ncnc2c1ccn2[C@@H]1C[C@H]([C@@H](O)c2cccc3c2CNCC3)[C@@H](O)[C@H]1O [Example 57, (1S,2R,3R,5R)-3-((R)-hydroxy(1,2,3,4-tetrahydroisoquinolin-8-yl)methyl)-5-(4-methyl-7H-pyrrolo[2,3-d]pyrimidin-7-yl)cyclopentane-1,2-diol]",48 nM
4,"Cc1nccc(N(C)[C@@H]2C[C@H]([C@H](O)c3ccc(F)c(F)c3)[C@@H](O)[C@H]2O)n1 [Example 35, (1S,2R,3R,5R)-3-[(S)-(3,4-difluorophenyl)(hydroxy)methyl]-5-[methyl(2-methylpyrimidin-4-yl)amino] cyclopentane-1,2-diol]",150 nM
5,"Cc1ncnc2c1ccn2[C@@H]1C[C@H]([C@@H](O)c2cc(F)c(F)c(F)c2)[C@@H](O)[C@H]1O [Example 14, (1S,2R,3R,5R)-3-[(R)-hydroxy(3,4,5-trifluorophenyl)methyl]-5-(4-methyl-7H-pyrrolo[2,3-d]pyrimidin-7-yl)cyclopentane-1,2-diol]",719 nM
6,"CCOc1nc(O[C@H]2C[C@@H](n3ccc4c(C)ncnc43)[C@H](O)[C@@H]2O)c2c(c1F)CCNC2 [Example 192, (1S,2S,3S,5R)-3-((3-ethoxy-4-fluoro-5,6,7,8-tetrahydro-2,7-naphthyridin-1-yl)oxy)-5-(4-methyl-7H-pyrrolo[2,3-d]pyrimidin-7-yl)cyclopentane-1,2-diol]",55 nM
7,"Cc1ncnc2c1ccn2[C@@H]1C[C@H](Oc2cc(C(C)(C)O)cc3c2CNCC3)[C@@H](O)[C@H]1O [Example 97, (1S,2S,3S,5R)-3-((6-(2-hydroxypropan-2-yl)-1,2,3,4-tetrahydroisoquinolin-8-yl)oxy)-5-(4-methyl-7H-pyrrolo[2,3-d]pyrimidin-7-yl)cyclopentane-1,2-diol]",65 nM
8,"Cc1cn([C@@H]2C[C@H](Oc3cc(F)c(F)c4c3CNCC4)[C@@H](O)[C@H]2O)c2ncnc(N)c12 [Example 179, (1S,2S,3R,5S)-3-(4-amino-5-methyl-7H-pyrrolo[2,3-d]pyrimidin-7-yl)-5-((5,6-difluoro-1,2,3,4-tetrahydroisoquinolin-8-yl)oxy)cyclopentane-1,2-diol]",1 nM
9,"Cc1ncnc2c1ccn2[C@@H]1C[C@H]([C@H](O)c2ccc(F)cc2)[C@@H](O)[C@H]1O [Example 9, (1S,2R,3R,5R)-3-[(S)-(4-fluorophenyl) (hydroxy)methyl]-5-(4-methyl-7H-pyrrolo[2,3-d]pyrimidin-7-yl)cyclopentane-1,2-diol]",60 nM
10,"Cc1ncnc2c1ccn2[C@@H]1C[C@H]([C@@H](O)c2ccc(Cl)c(F)c2)[C@@H](O)[C@H]1O [Example 161, (1S,2R,3R,5R)-3-((R)-(4-chloro-3-fluorophenyl)(hydroxy)methyl)-5-(4-methyl-7H-pyrrolo[2,3-d]pyrimidin-7-yl)cyclopentane-1,2-diol]",201 nM
11,"Cc1ncnc2c1ccn2[C@@H]1C[C@H](Oc2cccc3ccncc23)[C@@H](O)[C@H]1O [Example 172, (1S,2S,3S,5R)-3-(isoquinolin-8-yloxy)-5-(4-methyl-7H-pyrrolo[2,3-d]pyrimidin-7-yl)cyclopentane-1,2-diol]",1280 nM
12,"Cc1ncnc2c1ccn2[C@@H]1C[C@H](Oc2ccc(Cl)cc2C(O)CN)[C@@H](O)[C@H]1O (stereo partly drawn) [Example 149, (1S,2S,3S,5R)-3-(2-(2-amino-1-hydroxyethyl)-4-chlorophenoxy)-5-(4-methyl-7H-pyrrolo[2,3-d]pyrimidin-7-yl)cyclopentane-1,2-diol]",69 nM
13,"CCOc1cc(O[C@H]2C[C@@H](n3ccc4c(C)ncnc43)[C@H](O)[C@@H]2O)c2c(c1F)CCNC2 [Example 199, (1S,2S,3S,5R)-3-((6-ethoxy-5-fluoro-1,2,3,4-tetrahydroisoquinolin-8-yl)oxy)-5-(4-methyl-7H-pyrrolo[2,3-d]pyrimidin-7-yl)cyclopentane-1,2-diol]",91 nM
14,Cc1ncnc2c1ccn2[C@@H]1C[C@H]([C@H](O)c2cccc(Cl)c2)[C@@H](O)[C@H]1O [Example 7],120 nM
15,"Cc1ncnc2c1ccn2[C@@H]1C[C@H]([C@@H](O)c2ccc(Cl)cc2)[C@@H](O)[C@H]1O [Example 12, (1S,2R,3R,5R)-3-[(R)-(4-chlorophenyl) (hydroxy)methyl]-5-(4-methyl-7H-pyrrolo[2,3-d]pyrimidin-7-yl)cyclopentane-1,2-diol]",478 nM
16,"Cc1ncnc2c1ccn2[C@@H]1C[C@H](C(C)(C)O)[C@@H](O)[C@H]1O [Example 18, (1S,2R,3S,5R)-3-(2-hydroxypropan-2-yl)-5-(4-methyl-7H-pyrrolo[2,3-d]pyrimidin-7-yl)cyclopentane-1,2-diol]",3700 nM

# More lines, now with the values ahead:
row,IC50,SMILES
1,1 nM,"Cc1ncnc2c1ccn2[C@@H]1C[C@H](Oc2ccc(F)c3c2CNCC3C)[C@@H](O)[C@H]1O (single isomer, unassigned) [Example 183, hydrochloride]"
2,5 nM,"Cc1ncnc2c1ccn2[C@@H]1C[C@H](Oc2cccc3c2CNC[C@@H](C)O3)[C@@H](O)[C@H]1O [Example 209, (1S,2S,3S,5R)-3-(((R)-2-methyl-2,3,4,5-tetrahydrobenzo[f][1,4]oxazepin-6-yl)oxy)-5-(4-methyl-7H-pyrrolo[2,3-d]pyrimidin-7-yl)cyclopentane-1,2-diol]"
3,> 200000 nM,"Cc1ncnc2c1ccn2[C@H]1C[C@@H](Oc2ccc(F)cc2C#N)[C@H](O)[C@@H]1O [Example 69, 2-(((1R,2R,3R,4S)-2,3-dihydroxy-4-(4-methyl-7H-pyrrolo[2,3-d]pyrimidin-7-yl)cyclopentyl)oxy)-5-fluorobenzonitrile]"
4,> 200000 nM,"Cc1ncnc2c1ccn2[C@@H]1C[C@H](Oc2ccc(F)cc2C#N)[C@@H](O)[C@H]1O [Example 68, 2-(((1S,2S,3S,4R)-2,3-dihydroxy-4-(4-methyl-7H-pyrrolo[2,3-d]pyrimidin-7-yl)cyclopentyl)oxy)-5-fluorobenzonitrile]"
5,77 nM,"Cc1ncnc2c1ccn2[C@@H]1C[C@H](Oc2cccc(C(F)(F)F)c2CN)[C@@H](O)[C@H]1O [Example 144, (1S,2S,3S,5R)-3-(2-(aminomethyl)-3-(trifluoromethyl)phenoxy)-5-(4-methyl-7H-pyrrolo[2,3-d]pyrimidin-7-yl)cyclopentane-1,2-diol]"
6,83 nM,"Cc1ncnc2c1ccn2C1C[C@H](Oc2cccc3c2CNC3)[C@@H](O)[C@H]1O (stereo partly drawn) [Example 79, (1S,2S,3S,5R)-3-(2,3-dihydro-1H-isoindol-4-yloxy)-5-(4-methyl-7H-pyrrolo[2;3-d]pyrimidin-7-yl)cyclopentane-1,2-diol]"
7,1670 nM,"Cc1ncnc2c1ccn2[C@@H]1C[C@H](Oc2cccc3c2CCN(C)C3)[C@@H](O)[C@H]1O [Example 81, (1S,2S,3R,5S)-3-(4-methyl-7H-pyrrolo[2,3-d]pyrimidin-7-yl)-5-[(2-methyl-1,2,3,4-tetrahydroisoquinolin-5-yl)oxy]cyclopentane-1,2-diol]"
8,11 nM,"Cc1ncnc2c1ccn2[C@@H]1C[C@H](Oc2cccc3c2[C@H](N)CC3)[C@@H](O)[C@H]1O [Example 142, (1S,2S,3S,5R)-3-(((R)-3-amino-2,3-dihydro-1H-inden-4-yl)oxy)-5-(4-methyl-7H-pyrrolo[2,3-d]pyrimidin-7-yl)cyclopentane-1,2-diol]"
